{"source": "patent US20240140970A1", "about": "“A […], AND PREPARATION METHOD AND USE THEREOF” (ASCENTAWITS PHARMACEUTICALS, LTD., priority 2021, published 2024)", "assay": "Stability of AST-2660 in human urine at −20° C. and −70° C. for one month (LC-MS/MS)", "type": "in vitro ADME", "method": "The detection method established in example 6 was used to detect the content of AST-2660 in the human urine to be tested.\nMatrix: the mixed normal human urine containing an additive Na2HPO4·12H2O. • a: the internal standard working solution: AST-2660-D8 was taken, dissolved with methanol, and diluted to prepare a solution containing about 100 ng per 1 ml. • b: the solution to be tested (no internal standard compound was added to the solution to be tested at this time): it was obtained by taking a blood sample to be tested. • c: the standard working solution (no internal standard compound was added to the standard working solution at this time): an appropriate amount of AST-2660 was taken and accurately weighed, dissolved with methanol and diluted to prepare a solution containing about 1.0 mg per 1 ml, which was used as the standard working stock solution. An appropriate amount of the standard working stock solution was taken, added with the matrix and diluted to prepare standard working solutions with different concentrations containing about 200 ng, 160 ng, 100 ng, 50 ng, 10 ng, 2.0 ng, 1.0 ng and 0.5 ng per 1 ml, respectively. (The solution was stored at −70° C.) • d: the quality control sample solution: an appropriate amount of AST-2660 was taken and accurately weighed, dissolved with methanol, and diluted to prepare a solution containing about 10 μg per 1 ml, which was used as the quality control working stock solution. An appropriate amount of the quality control working stock solution was taken, and added with the matrix to prepare quality control working solutions with different concentrations containing about 150 ng, 60 ng, 15 ng, 1.5 ng and 0.5 ng per 1 ml. (The solution was stored at −70° C.)\nThe solution to be tested, the standard working solution and the quality control sample solution were thawed at room temperature and mixed uniformly. 100 μl of the above solution was respectively taken, added with 20 μl of the internal standard and 500 μl of methanol, and vortexed for 3 minutes to mix uniformly, and then centrifuged for 30 minutes at 2143 rcf. 450 μl of supernatant was taken, and then centrifuged for 10 minutes in a 96-well plate at 2143 rcf. It was obtained by taking 300 μl of supernatant.\nLiquid phase conditions: A SHARC 1, 3 μm, 2.1*50 mm or chromatograph column with equivalent performance was used; methanol solution containing low content of ammonium acetate was used; mobile phase B was acetonitrile; the gradient elution was performed according to the following table; column temperature: 20° C.; injection volume: 5 μl.\nMass spectrometric conditions: electrospray ion source with negative ion scanning mode; spray potential: −4500 V; ion source temperature: 500° C.; collision energy (CE): −22 eV; declustering potential (DP): −55V; entrance potential (EP): −10V; collision chamber exit potential (CXP): −16V; dwell time: 100 ms; high purity nitrogen was used for all gases; AST-2660 ions pairs: m/z 147.0→m/z 62.9; the internal standard AST-2660-D8 ion pairs: m/z 155.0→m/z 62.9.\nThe AST-2660 standard working solution, blank sample, zero concentration sample, solution to be tested and quality control working solution with different concentrations after extraction were respectively taken and injected into LC-MS/MS for detection.\nCalculation results: the relationship function y=f (x) of the ratio of the peak area of AST-2660 to that of the internal standard was obtained from AST-2660 standard working solutions with different concentrations. The ratio of the peak area of AST-2660 to that of the internal standard was determined from the solution to be tested after extraction, and substituted into the relationship function y=f (x) to calculate the concentration of the metabolite II in the solution to be tested.", "key": {"[1]": {"conditions": "DilQC (10-fold dilution) nominal 1500 ng/ml, 32 days at −20° C."}, "[2]": {"conditions": "DilQC (10-fold dilution) nominal 1500 ng/ml, 32 days at −70° C."}, "[3]": {"conditions": "QC1 nominal 1.50 ng/ml, 32 days at −70° C. (actually tested on day 34)"}, "[4]": {"conditions": "QC4 nominal 150 ng/ml, 32 days at −20° C."}, "[5]": {"conditions": "QC4 nominal 150 ng/ml, 32 days at −70° C."}}, "note": "Several values for one entry are separate records, joined by “and”; a condition that tells them apart may be missing. Equal values may be shown once."}
{"smiles": "O=P([O-])(N1CC1)N1CC1.[Na+]", "note": "[AST-2660]", "values": [{"measurement": "reduction of AST-2660 content", "setting": "32 days of storage at −20° C.", "result": "~90", "unit": "%"}, {"measurement": "change of AST-2660 content (in words)", "setting": "32 days of storage at −70° C.", "result": "almost no reduction"}, {"measurement": "AST-2660 concentration, Mean value", "setting": "[1]", "result": 7.23, "unit": "ng/mL"}, {"measurement": "AST-2660 concentration, single replicates", "setting": "[1]", "result": "6.87 ng/mL and 7.70 ng/mL and 7.73 ng/mL and 6.60 ng/mL"}, {"measurement": "RE (%) vs nominal", "setting": "[1]", "result": "−99.5", "unit": "%"}, {"measurement": "AST-2660 concentration, Mean value", "setting": "[2]", "result": 1483, "unit": "ng/mL"}, {"measurement": "AST-2660 concentration, single replicates", "setting": "[2]", "result": "1570 ng/mL and 1400 ng/mL and 1470 ng/mL and 1490 ng/mL"}, {"measurement": "RE (%) vs nominal", "setting": "[2]", "result": "−1.2", "unit": "%"}, {"measurement": "AST-2660 concentration, single replicates", "setting": "QC1 nominal 1.50 ng/ml, 32 days at −20° C.", "result": "<LLOQ (0.500) ng/ml"}, {"measurement": "AST-2660 concentration, Mean value", "setting": "[3]", "result": 1.71, "unit": "ng/mL"}, {"measurement": "AST-2660 concentration, single replicates", "setting": "[3]", "result": "1.53 ng/mL and 1.97 ng/mL and 1.72 ng/mL and 1.60 ng/mL"}, {"measurement": "RE (%) vs nominal", "setting": "[3]", "result": 13.7, "unit": "%"}, {"measurement": "AST-2660 concentration, Mean value", "setting": "[4]", "result": 13.4, "unit": "ng/mL"}, {"measurement": "AST-2660 concentration, single replicates", "setting": "[4]", "result": "13.1 ng/mL and 12.4 ng/mL and 12.9 ng/mL and 15.2 ng/mL"}, {"measurement": "RE (%) vs nominal", "setting": "[4]", "result": "−91.1", "unit": "%"}, {"measurement": "AST-2660 concentration, Mean value", "setting": "[5]", "result": 161, "unit": "ng/mL"}, {"measurement": "AST-2660 concentration, single replicates", "setting": "[5]", "result": "155 ng/mL and 159 ng/mL and 161 ng/mL and 168 ng/mL"}, {"measurement": "RE (%) vs nominal", "setting": "[5]", "result": 7.2, "unit": "%"}]}
